In paper PMC7297889, “In vivo absolute quantification of striatal and extrastriatal D2/3 receptors with [^123I]epidepride SPECT” (EJNMMI Research, 2020):
Where “and” joins values, the source holds several entries; their conditions need not be identical. Equal entries are not always repeated.

Tests used:
D2/3 receptors [1] = assay: multi-injection SPECT protocol, 2T-5k full kinetic modeling; format: in vivo, rat; settings: mean of 3 rats; for Kd: read-out: appKD
From the text: (§1) 18 male Mdr1a (P-glycoprotein) knock-out (KO) rats, weighing between 380 and 500 g, were employed in the study. Using this rat strain allowed us to study the kinetics of [^123I]epidepride independently of the potentially confounding effect of the P-glycoprotein [30–34]. Of these, 3 rats were employed in an in vivo multi-injection SPECT imaging protocol for absolute D2/3 receptor quantification (SPECT-MI in Table 1). Four rats were employed in an arterial plasma analysis for the study of plasma kinetics of the radiotracer and the estimation of the free parent radiotracer fraction (TLC in Table 1). Four rats were employed in a SPECT experiment with a partial D2/3 receptor saturation design for the determination of Bavail and appKd parameters from an in vivo Scatchard plot (SPECT-PSA in Table 1). Finally, 7 rats were employed in a preliminary study of the effect of a chronic haloperidol treatment on the Bavail and appKd of the D2/3 receptors in rats (SPECT-PSA_HAL for haloperidol-treated and SPECT-PSA_CON for control rats in Table 1, see Additional file 1).
(§2) SPECT scans were performed with a U-SPECT-II camera (MiLabs, Utrecht, Netherlands). In rats that underwent SPECT scans with the multi-injection protocol, two polyethylene catheters (i.d. = 0.58 mm, o.d. = 0.96 mm) were inserted in the left femoral vein and artery for radiotracer administration and blood sampling, respectively. On the other hand, in rats that underwent SPECT scans for the partial saturation protocol, radiotracer injection was performed via a tail vein catheter. SPECT scans were performed under isoflurane anesthesia (3% for induction and 1–2% for maintenance). Body temperature was monitored during the scans and maintained at 37 ± 1 °C by means of a thermostatically controlled heating blanket.
(§3) SPECT image reconstruction was performed using a pixel-ordered subset expectation maximization (P-OSEM, 0.4-mm voxel size, 4 iterations, 6 subsets) algorithm using MiLabs image reconstruction software. Radioactive decay correction was performed, while correction for attenuation or scatter was not. Following reconstruction, dynamic images from the partial saturation experiment were denoised with factor analysis (FA) using Pixies software (Apteryx, Issy-les-Moulineaux, France) as previously described. FA allows the decomposition of a dynamic signal into a few elementary components, termed factors. In this study, 3 factors were retained and the rest of the signal was discarded as noise. SPECT images were processed with PMOD software v3.7 (PMOD Technologies Ltd, Zurich, Switzerland). Averaged images corresponding to the ten first frames of the acquisition were co-registered to a magnetic resonance imaging (MRI) template integrated in PMOD [37]. Transformation matrices were then applied to dynamic images.
A multi-injection protocol for full kinetic modeling of [^123I]epidepride was employed. The scan protocol began with a first injection of the radiotracer at a high-specific activity, followed by a second co-injection of [^123I]epidepride and the unlabeled compound at 180 min and a third injection of the unlabeled compound alone at 240 min. The overall scan protocol included 360 1-min frames (Fig. 1).
The whole multi-injection study TAC data was fitted in with a two-tissue compartment five-parameter model (2T-5k), to estimate K1, k2, kon, koff, and Bavail as previously described. The free, non-metabolized radiotracer fraction in the plasma was used as the input function. During dynamic SPECT acquisitions, 40 arterial blood samples (of 25 μl each) were withdrawn after each radiotracer injection at regular time intervals. Radioactivity was measured in a gamma counting system and expressed in kBq/ml after calibration. […]

D2/3 receptors [2] = assay: in vivo partial saturation SPECT study (in vivo Scatchard plot); parameters: species or system rat; settings: mean of 4 rats; for Kd: read-out: appKD
From the text: as §1, §2, §3
A partial saturation protocol was employed to estimate Bavail and appKd as recently described for another D2/3 radiotracer based on the original description by Delforge et al., as optimized by Wimberley et al.. Briefly, co-injection of a dose of the unlabeled compound at doses that occupy 50–70% of the receptors allows to form a Scatchard plot when the specifically bound fraction of radiotracer (CS) is plotted against the ratio of CS to the non-displaceable binding at the same region (CS/CND). The intercept to the CS axis provides the Bavail and the inverse of the slope the appKd.
In the partial saturation approach, the cerebellar TAC is employed as an approximation of the non-displaceable binding in the target brain VOIs. Given the differences in the concentration of this binding between the Cer and the target VOIs, as well as the presence of a non-negligible specific binding in the Cer with [^123I]epidepride, the cerebellar TAC has to be corrected. […]

[3] = arterial plasma analysis: metabolite correction and plasma protein binding; format: in vivo; settings: rat arterial plasma, 4 rats
From the text: as §1
The whole multi-injection study TAC data was fitted in with a two-tissue compartment five-parameter model (2T-5k), to estimate K1, k2, kon, koff, and Bavail as previously described. The free, non-metabolized radiotracer fraction in the plasma was used as the input function. During dynamic SPECT acquisitions, 40 arterial blood samples (of 25 μl each) were withdrawn after each radiotracer injection at regular time intervals. Radioactivity was measured in a gamma counting system and expressed in kBq/ml after calibration. To estimate the plasma input function in in vivo SPECT experiments, only whole-blood radioactivity was measured individually and the free, non-metabolized radiotracer fraction was fitted using a model estimated in an independent experiment. Indeed, metabolite correction and plasma protein binding analysis for the estimation of radiotracer plasma input function was performed in an independent group of 4 rats, as previously described The analysis was performed in MATLAB software R2019 (Mathworks, USA).
As described in the “Methods” section describing the multi-injection study protocol, in each dynamic brain SPECT study, only whole-arterial blood radioactivity was measured. The free, non-metabolized radiotracer fraction was estimated by fitting average data from an independent group of four rats in an experiment that was independent from the SPECT scan experiments. The parameters of the bi-exponential function describing the kinetics of the mean percent non-metabolized plasma radiotracer were A1 = 0.61, B1 = − 0.20, A2 = 0.27, B2 = − 0.006. Average percentage of radiotracer bound to plasma proteins was 22% (f1 = 0.22 ± 0.06). […]

D2/3 receptors [4] = assay: chronic haloperidol treatment, striatal D2/3 Bavail by [^123I]epidepride partial saturation SPECT; format: in vivo, rat; settings: for increase in Bavail vs vehicle-treated group: haloperidol 1 mg/kg/day 28 days; for Bavail of [^123I]epidepride in haloperidol-treated group: haloperidol 1 mg/kg/day sc 28 days, scan 7 days after, n=3
From the text: as §1
For this purpose, two groups of rats were treated with either haloperidol (1 mg/kg/day, n=3) or vehicle (n=4) for 28 days. A [^123I]epidepride SPECT scan using the partial saturation protocol was performed 7 days (a sufficient period for the complete elimination of haloperidol) after the end of the treatment period to assess neurochemical changes with respect to the D2/3 receptor. The radioactivity doses that were employed are presented in Table 1 (SPECT-PSA_HAL for haloperidol-treated and SPECT-PSA_CON for control rats). Statistical analysis of the difference in the quantitative parameter values between the groups was performed by means of a two-sample t test.
Haloperidol was purchased from Sigma-Aldrich (Buchs, Switzerland). It was dissolved in dimethyl-sulfoxide (DMSO) 50% v/v in water. Osmotic pumps (Alzet, Durect, Cupertino, CA, USA) were employed to continuously deliver the treatment at a dose of 1 mg/kg/day over 28 days. For the pump implantation, rats were anesthetized with isoflurane (3% for induction and 1-2 % for maintenance). Body temperature was monitored during the scans and maintained at 37±1 °C by means of a thermostatically controlled heating blanket. An incision was performed in the lateral abdominal wall and a pump was subcutaneously implanted. Subcutaneous analgesia (0.02 mg/kg/8h sc; Temgesic, Reckitt Benckiser Pharmaceuticals Inc) was administered right before surgery and was continued per os in the drinking water for 48h. For the removal of the osmotic pumps, the same surgical procedure was performed after the end of the treatment period (28 days).

## CCN1CCC[C@H]1CNC(=O)c1cc(I)cc(OC)c1OC [[^123I]epidepride]
D2/3 receptors [1]; Amy
  Bavail: 2.71 pmol/mL
  k2: 0.16 min⁻¹
  koff: 0.0005 s⁻¹
  Κ1: 0.38 mL.cm^-3 .min-^1
  Kd: 0.36 nM
D2/3 receptors [1]; CP
  Bavail: 24.22 pmol/mL
  k2: 0.10 min⁻¹
  koff: 0.00067 s⁻¹
  Κ1: 0.69 mL.cm^-3 .min-^1
  Kd: 0.22 nM
D2/3 receptors [1]; Cer
  Bavail: 2.02 pmol/mL
  k2: 0.20 min⁻¹
  koff: 0.00033 s⁻¹
  Κ1: 0.66 mL.cm^-3 .min-^1
  Kd: 0.65 nM
D2/3 receptors [1]; FC
  Bavail: 20.67 pmol/mL
  k2: 0.09 min⁻¹
  koff: 0.0005 s⁻¹
  Κ1: 0.40 mL.cm^-3 .min-^1
  Kd: 4.5 nM
D2/3 receptors [1]; Hyp
  Bavail: 3.64 pmol/mL
  k2: 0.13 min⁻¹
  koff: 0.00083 s⁻¹
  Κ1: 0.50 mL.cm^-3 .min-^1
  Kd: 0.37 nM
D2/3 receptors [1]; InfC
  Bavail: 3.03 pmol/mL
  k2: 0.17 min⁻¹
  koff: 0.00067 s⁻¹
  Κ1: 0.80 mL.cm^-3 .min-^1
  Kd: 0.18 nM
D2/3 receptors [1]; NAc
  Bavail: 10.18 pmol/mL
  k2: 0.10 min⁻¹
  koff: 0.00067 s⁻¹
  Κ1: 0.53 mL.cm^-3 .min-^1
  Kd: 0.15 nM
D2/3 receptors [1]; SupC
  Bavail: 3.86 pmol/mL
  k2: 0.16 min⁻¹
  koff: 0.00083 s⁻¹
  Κ1: 0.70 mL.cm^-3 .min-^1
  Kd: 0.28 nM
D2/3 receptors [1]; VTA
  Bavail: 3.77 pmol/mL
  k2: 0.14 min⁻¹
  koff: 0.00067 s⁻¹
  Κ1: 0.57 mL.cm^-3 .min-^1
  Kd: 0.34 nM
D2/3 receptors [2]; Amy, fixed appKd
  Bavail: 2.77 pmol/mL
D2/3 receptors [2]; CP
  Bavail: 21.25 pmol/mL
  Kd: 0.08 nM
D2/3 receptors [2]; FC, fixed appKd
  Bavail: 5.15 pmol/mL
D2/3 receptors [2]; Hyp, fixed appKd
  Bavail: 3.85 pmol/mL
D2/3 receptors [2]; InfC, fixed appKd
  Bavail: 4.46 pmol/mL
D2/3 receptors [2]; NAc
  Bavail: 11.75 pmol/mL
  Kd: 0.27 nM
D2/3 receptors [2]; SupC, fixed appKd
  Bavail: 3.97 pmol/mL
D2/3 receptors [2]; VTA, fixed appKd
  Bavail: 4.01 pmol/mL
[3]; male, Mdr1a (P-glycoprotein) knock-out, read-out: Average percentage of radiotracer bound to plasma proteins (converted)
  fraction unbound: 0.78
[3]
  A1 of bi-exponential function of mean percent non-metabolized plasma radiotracer: 0.61
  A2 of bi-exponential function of mean percent non-metabolized plasma radiotracer: 0.27
  f1: 0.22 ± 0.06

## O=C(CCCN1CCC(O)(c2ccc(Cl)cc2)CC1)c1ccc(F)cc1 [haloperidol]
D2/3 receptors [4]; left CP, p = 0.07
  increase in Bavail vs vehicle-treated group: 17.9% and 17.97%
D2/3 receptors [4]; left CP
  Bavail of [^123I]epidepride in haloperidol-treated group: 25.67 ± 2.30 pmol/mL
D2/3 receptors [4]; right CP, p = 0.12
  increase in Bavail vs vehicle-treated group: 13.8% and 13.84%
D2/3 receptors [4]; right CP
  Bavail of [^123I]epidepride in haloperidol-treated group: 25.33 ± 2.52 pmol/mL
